Among the data in patent publication US20260193250A1, “TOLL-LIKE RECEPTOR 7 AGONISTS AS IMMUNE-STIMULATORS TO ELICIT THE INNATE ANTITUMOR IMMUNITY” (Merck Patent GmbH, priority 2022, published 2026) are EC50 values, retold here.

Usually EC50 stands for the concentration needed to bring the measured effect to its halfway point.

Each structure is given as a SMILES string. Some results are limits rather than exact numbers.

One assay deals with T1, hTLR7 (Homo sapiens, UniProt Q9NYK1).
T1 construct: host or cells: HEK-Blue hTLR7 (HEK293-derived SEAP reporter cells)
T1 sequence (Q9NYK1 27-1049): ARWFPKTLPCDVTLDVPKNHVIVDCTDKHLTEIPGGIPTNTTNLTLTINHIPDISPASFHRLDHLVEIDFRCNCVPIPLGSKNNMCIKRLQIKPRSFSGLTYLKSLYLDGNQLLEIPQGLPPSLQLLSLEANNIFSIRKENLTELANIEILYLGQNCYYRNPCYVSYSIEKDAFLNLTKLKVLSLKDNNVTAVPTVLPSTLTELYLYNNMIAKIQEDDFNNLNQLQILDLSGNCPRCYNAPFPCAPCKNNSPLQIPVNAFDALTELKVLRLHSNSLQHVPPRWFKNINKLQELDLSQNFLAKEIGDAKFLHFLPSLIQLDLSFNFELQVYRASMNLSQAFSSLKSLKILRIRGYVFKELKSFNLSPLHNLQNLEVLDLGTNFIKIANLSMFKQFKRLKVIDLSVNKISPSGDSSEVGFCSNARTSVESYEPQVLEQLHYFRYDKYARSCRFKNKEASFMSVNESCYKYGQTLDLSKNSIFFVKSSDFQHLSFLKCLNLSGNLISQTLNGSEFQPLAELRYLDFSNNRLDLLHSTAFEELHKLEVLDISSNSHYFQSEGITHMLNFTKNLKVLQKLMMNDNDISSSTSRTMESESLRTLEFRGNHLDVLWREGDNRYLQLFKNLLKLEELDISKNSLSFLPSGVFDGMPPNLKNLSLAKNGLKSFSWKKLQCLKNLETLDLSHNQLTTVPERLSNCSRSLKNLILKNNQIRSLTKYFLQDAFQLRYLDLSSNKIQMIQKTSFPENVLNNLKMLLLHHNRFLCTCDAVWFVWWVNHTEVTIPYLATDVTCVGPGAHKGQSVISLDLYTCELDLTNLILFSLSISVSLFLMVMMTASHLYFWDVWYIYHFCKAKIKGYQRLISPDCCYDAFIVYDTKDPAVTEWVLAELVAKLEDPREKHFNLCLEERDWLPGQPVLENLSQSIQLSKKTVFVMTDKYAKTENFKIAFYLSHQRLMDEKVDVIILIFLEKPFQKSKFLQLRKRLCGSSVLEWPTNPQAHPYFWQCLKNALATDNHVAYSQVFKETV
Description: TLR7 reporter assay in HEK-Blue cells (SEAP, Quanti-Blue). Particulars: 24 hours incubation, SEAP absorbance at 620 nm. It counts as cell-based. The protocol: (§1) HEK-Blue™ TLR7 and TLR8 cell lines were obtained from InvivoGen (San Diego, CA, USA). HEK-Blue cells were cultured in DMEM medium hi glucose (Gibco-10569010) supplemented with 10% HI-FBS (Aus origin) (Gibco-10100-147), 1% penicillin/streptomycin (Gibco-15140-122-100 ml) as per manufacturer's recommendation. In addition, specific antibiotic mixtures were added to the culture. 100 μg/ml Zeocin (11006-33-0), 10 μg/ml Blasticidin (ant-bl-05), 50 μg/ml Normocin (ANT-NR-1-500 MG) for HEK-Blue™ hTLR7 and 100 μg/ml Zeocin, 30 μg/ml Blasticidin, 50 μg/ml Normocin for HEK-Blue™ hTLR8 cells (all from InvivoGen).
(§2) All the compounds were prepared in 100% DMSO (Sigma-D2650). The compounds were serially diluted in 100% DMSO (3 fold) up to 10 point dose response curve starting with 30 μM; final concentration of DMSO in the plate was 0.3%. Resiquimod and TL8-506 (InvivoGen-tlrl-t18506) were used as controls. 0.3% DMSO and 10 μM Resiquimod were used as min and max respectively, and % activation was calculated using following formula:
(§3) % Activation: {100−(max absorbance−absorbance)/(max absorbance−min absorbance)}×100.
(§4) For stimulation with TLR7/8 agonists, cells were resuspended in complete media and 40 μl of cell suspension (10,000 cells/well) was seeded on day 1 in 384 well assay plate (Thermo Scientific™ Nunc-164688) having pre-dispensed compounds with Echo Liquid handler. The plate was spun at 100 g for 1 min to settle down the cells and incubated at 37° C. with 5% CO2 for 24 hours. For measuring production of SEAP after 24 hrs of incubation, 10 μl of Quanti-Blue™ solution (InvivoGen rep-qbs2) prepared according to manufacturer's instructions was added in dark to the assay plate and incubated at 37° C. with 5% CO2 for 30 min. Post incubation, the absorbance was measured at 620 nm in Tecan spark (Spark control Magellan). EC50 were determined using Graph Pad Prism Statistical software (Version 7.05), with individual data points represent the absorbance values of duplicates.

The target of a further assay is T2, hTLR8 (Homo sapiens, UniProt Q9NR97).
T2 construct: host or cells: HEK-Blue hTLR8 (HEK293-derived SEAP reporter cells)
T2 sequence (Q9NR97 27-1041): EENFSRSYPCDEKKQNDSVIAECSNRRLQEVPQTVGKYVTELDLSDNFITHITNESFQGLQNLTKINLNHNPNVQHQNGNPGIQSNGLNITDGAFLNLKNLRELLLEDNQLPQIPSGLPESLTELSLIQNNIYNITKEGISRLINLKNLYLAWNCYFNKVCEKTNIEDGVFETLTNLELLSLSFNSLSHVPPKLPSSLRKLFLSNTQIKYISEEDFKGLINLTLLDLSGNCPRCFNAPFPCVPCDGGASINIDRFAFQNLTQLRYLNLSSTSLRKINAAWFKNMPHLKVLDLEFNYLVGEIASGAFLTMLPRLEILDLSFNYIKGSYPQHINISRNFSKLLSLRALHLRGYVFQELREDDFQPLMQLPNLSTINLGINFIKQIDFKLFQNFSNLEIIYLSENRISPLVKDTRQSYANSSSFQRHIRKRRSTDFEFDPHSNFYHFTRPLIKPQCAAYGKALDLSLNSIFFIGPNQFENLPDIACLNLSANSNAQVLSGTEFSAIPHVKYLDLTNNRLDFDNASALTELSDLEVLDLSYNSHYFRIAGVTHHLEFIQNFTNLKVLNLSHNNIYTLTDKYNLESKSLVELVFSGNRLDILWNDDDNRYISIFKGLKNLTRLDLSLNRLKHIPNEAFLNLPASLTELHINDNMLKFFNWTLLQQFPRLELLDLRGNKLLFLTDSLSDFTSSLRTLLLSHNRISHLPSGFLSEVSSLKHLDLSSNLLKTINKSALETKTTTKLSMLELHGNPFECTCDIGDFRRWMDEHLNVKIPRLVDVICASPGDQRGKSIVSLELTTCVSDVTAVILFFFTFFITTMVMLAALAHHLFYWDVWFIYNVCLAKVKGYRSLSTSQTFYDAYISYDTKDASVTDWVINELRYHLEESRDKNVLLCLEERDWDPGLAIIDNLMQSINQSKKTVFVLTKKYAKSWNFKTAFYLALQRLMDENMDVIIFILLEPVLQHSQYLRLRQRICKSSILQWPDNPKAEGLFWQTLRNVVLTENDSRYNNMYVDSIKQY
As to the kind of experiment: TLR8 reporter assay in HEK-Blue cells (SEAP, Quanti-Blue). The assay is classed as cell-based. The following applies: 24 hours incubation, SEAP absorbance at 620 nm. The protocol:
as §1, §2, §3, §4

Regarding `CCOCc1nc2c(N)nc3ccccc3c2n1CC(C)(C)OCCCCN1CCN(CCSC)CC1` [Example 26], the results for the concentration giving a half-maximal response (EC50) at hTLR7 and on hTLR8 were 100 to 1000 nM and 1000 to 10000 nM, respectively.
As for `CCOCc1nc2c(N)nc3ccccc3c2n1CC(C)(C)OCCNC(=O)CSC` [Example 23], the EC50 was 100 to 1000 nM on hTLR7 and over 10000 nM on hTLR8.
For `CCOCc1nc2c(N)nc3ccccc3c2n1CC(C)(C)OCCNC(=O)CS(C)(=O)=O` [Example 24], the EC50 at hTLR7 and at hTLR8 was 100 to 1000 nM throughout.
Take `CCOCc1nc2c(N)nc3ccccc3c2n1CC(C)(C)OCCNC(=O)CC(=O)OC` [Example 22]: the half-maximal effective concentration (EC50) at hTLR7 is 100 to 1000 nM; at hTLR8, over 10000 nM.
In the case of `CCOCc1nc2c(N)nc3ccccc3c2n1CC(C)(C)OCCCCO` [Example 6], the 50% effective concentration (EC50) is 10 to 100 nM on hTLR7 and 1000 to 10000 nM at hTLR8.
On to `CCOCc1nc2c(N)nc3ccccc3c2n1CC(C)(C)OCCCC(=O)N1CCN(C)CC1` [Example 15], for which the 50% effective concentration (EC50) on hTLR7 is 10 to 100 nM; at hTLR8, 1000 to 10000 nM.
The like results for `CCOCc1nc2c(N)nc3ccccc3c2n1CC(C)(C)OC(=O)CN1CCN(C)CC1` [Example 17] were, in that order, 100 to 1000 nM and 100 to 1000 nM.
For `CCOCc1nc2c(N)nc3ccccc3c2n1CC(C)(C)OCCCCCCN1CCN(C)CC1` [Example 5], in that order: under 10 nM and 100 to 1000 nM.
Consider `CCOCc1nc2c(N)nc3ccccc3c2n1CC(C)(C)OCCNC(=O)CO` [Example 20], for which the EC50 on hTLR7 and on hTLR8 was over 10000 nM in each case.
On to `CCOCc1nc2c(N)nc3ccccc3c2n1CC(C)(C)OCCNC(=O)CN1CCN(C)CC1` [Example 16], for which the EC50 was 100 to 1000 nM at hTLR7 and 1000 to 10000 nM at hTLR8.
The like results for `CCOCc1nc2c(N)nc3ccccc3c2n1CC(C)(C)OCCNC(=O)C(C)(C)O` [Example 21] were, in that order, 100 to 1000 nM and over 10000 nM.
For `CCOCc1nc2c(N)nc3ccccc3c2n1CC(C)(C)OCCCCN1CCN(CCO)CC1` [Example 12], in that order: 10 to 100 nM and 1000 to 10000 nM.
Regarding `CCOCc1nc2c(N)nc3ccccc3c2n1CC(C)(C)OCCNC(=O)CS(=O)(=O)O` [Example 25], the values for the concentration giving a half-maximal response (EC50) at hTLR7 and at hTLR8 were 1000 to 10000 nM and over 10000 nM, respectively.
On to `CCOCc1nc2c(N)nc3ccccc3c2n1CC(C)(C)OCCN1CCN(C)CC1` [Example 1], for which the concentration giving a half-maximal response (EC50) on hTLR7 was under 10 nM; on hTLR8, 1000 to 10000 nM.
